Among the data in patent US9822126B1, “Substituted 1,2,3-triazol-1-yl-methyl-2,3-dihydro-2-methyl-6-nitroimidazo[2,1-b]oxazoles as anti-mycobacterial agents and a process for the preparation thereof” (priority 2014, dated 2017) are MIC values, retold here.

≈ marks a conversion by molar mass, not a printed value. Read-outs that look alike come from different tables or passages of the source.

Common to all, as to assay: microbe, parasite or virus in culture
Common to all, as to assay type: cell-based

For assay [1], the system named is M. tuberculosis XDR (resistant to isoniazid, rifampicin, amikacin and moxifloxacin). As to conditions: Mycobacterium tuberculosis, 504 h, read-out: MIC XDR.
The subject of assay [2] is M. tuberculosis MDR (resistant to isoniazid and rifampicin). As to conditions: Mycobacterium tuberculosis.
The subject of assay [3] is Rif^R: rifampicin resistant tuberculosis. As to conditions: Mycobacterium tuberculosis, read-out: MIC (Rif^R).
The mark [4] stands for this setting: read-out: MIC against multi and extensive-drug resistant strains.

For the compound `C[C@]1(Cn2cc(-c3ccc(OC(F)(F)F)cc3)nn2)Cn2cc([N+](=O)[O-])nc2O1` [I1, (R)-2-Methyl-6-nitro-2-((4-(4-(trifluoromethoxy)phenyl)-1H-1,2,3-triazol-1-yl)methyl)-2,3-dihydroimidazo[2,1-b]oxazole], the MIC was 1 µg/mL (≈ 2.44 µM) in assay [1]; 2 µg/mL (≈ 4.87 µM) in assay [2] (504 h, read-out: MIC MDR); 2 µg/mL (≈ 4.87 µM) in assay [3].
As to `C[C@]1(Cn2cc(-c3ccc(C(F)(F)F)cc3)nn2)Cn2cc([N+](=O)[O-])nc2O1` [I2, (R)-2-Methyl-6-nitro-2-((4-(4-(trifluoromethyl)phenyl)-1H-1,2,3-triazol-1-yl)methyl)-2,3-dihydroimidazo[2,1-b]oxazole], the MIC in assay [1] came out at 2 µg/mL (≈ 5.07 µM); in assay [2] (504 h, read-out: MIC MDR), 2 µg/mL (≈ 5.07 µM); in assay [3], 4 µg/mL (≈ 10.1 µM).
For `C[C@]1(Cn2cc(-c3ccc(F)cc3)nn2)Cn2cc([N+](=O)[O-])nc2O1` [I3, (R)-2-((4-(4-Fluorophenyl)-1H-1,2,3-triazol-1-yl)methyl)-2-methyl-6nitro-2,3-dihydro imidazo[2,1-b]oxazole], the MIC in assay [1] was 2 µg/mL (≈ 5.81 µM); in assay [2] (504 h, read-out: MIC MDR), 2 µg/mL (≈ 5.81 µM); in assay [3] it was 2 µg/mL (≈ 5.81 µM).
Consider `Cc1cc(-c2cn(C[C@@]3(C)Cn4cc([N+](=O)[O-])nc4O3)nn2)ccc1F` [I4, (R)-2-((4-(4-Fluoro-3-methylphenyl)-1H-1,2,3-triazol-1-yl)methyl)-2-methyl-6-nitro-2,3-dihydroimidazo[2,1-b]oxazole], for which the MIC in assay [1] is 2 µg/mL (≈ 5.58 µM); in assay [2] (504 h, read-out: MIC MDR), 4 µg/mL (≈ 11.2 µM); in assay [3] it was 1 µg/mL (≈ 2.79 µM).
The like results for `C[C@]1(Cn2cc(-c3ccc(F)cc3F)nn2)Cn2cc([N+](=O)[O-])nc2O1` [I5, (R)-2-((4-(2,4-Difluorophenyl)-1H-1,2,3-triazol-1-yl)methyl)-2-methyl-6-nitro-2,3-dihydroimidazo[2,1-b]oxazole] were, in that order, 4 µg/mL (≈ 11 µM), 1 µg/mL (≈ 2.76 µM) and 4 µg/mL (≈ 11 µM).
`C[C@]1(Cn2cc(-c3ccc(Oc4ccccc4)cc3)nn2)Cn2cc([N+](=O)[O-])nc2O1` [I6, (R)-2-Methyl-6-nitro-2-((4-(4-phenoxyphenyl)-1H-1,2,3-triazol-1-yl)methyl)-2,3-dihydroimidazo[2,1-b]oxazole]: the MIC in assay [1] was 1 µg/mL (≈ 2.39 µM); in assay [2] (504 h, read-out: MIC MDR) it was 1 µg/mL (≈ 2.39 µM); in assay [3], 1 µg/mL (≈ 2.39 µM).
With `CCCCCc1cn(C[C@@]2(C)Cn3cc([N+](=O)[O-])nc3O2)nn1` [I7, (R)-2-[(4-Pentyl-1H-1,2,3-triazol-1-yl)methyl]-2,3-dihydro-2-methyl-6-nitroimidazo[2,1-b]oxazole], the MIC in assay [1] is 8 µg/mL (≈ 25 µM); in assay [2] (504 h, read-out: MIC MDR), 2 µg/mL (≈ 6.24 µM); in assay [3], 8 µg/mL (≈ 25 µM).
On to `C[C@]1(Cn2cc(COc3ccc(OC(F)(F)F)cc3)nn2)Cn2cc([N+](=O)[O-])nc2O1` [I8, (R)-2-Methyl-6-nitro-2-((4-((4-(trifluoromethoxy)phenoxy)methyl)-1H-1,2,3-triazol-1-yl)methyl)-2,3-dihydroimidazo[2,1-b]oxazole], for which the MIC stood at 2 µg/mL (≈ 4.54 µM) in assay [1]; 2 µg/mL (≈ 4.54 µM) in assay [2] (504 h, read-out: MIC MDR); 2 µg/mL (≈ 4.54 µM) in assay [3].
As to `C[C@]1(Cn2cc(COc3ccc(C(F)(F)F)cc3)nn2)Cn2cc([N+](=O)[O-])nc2O1` [I9, (R)-2-Methyl-6-nitro-2-((4-((4-(trifluoromethyl)phenoxy)methyl)-1H-1,2,3-triazol-1-yl)methyl)-2,3-dihydroimidazo[2,1-b]oxazole], the MIC came out at 4 µg/mL (≈ 9.43 µM) in assay [1]; 4 µg/mL (≈ 9.43 µM) in assay [2] (504 h, read-out: MIC MDR); 4 µg/mL (≈ 9.43 µM) in assay [3].
`C[C@]1(Cn2cc(COc3cccc(Cl)c3)nn2)Cn2cc([N+](=O)[O-])nc2O1` [I10, (R)-2-((4-((3-Chlorophenoxy)methyl)-1H-1,2,3-triazol-1-yl)methyl)-2-methyl-6-nitro-2,3-dihydroimidazo[2,1-b]oxazole]: the MIC in assay [1] stood at 4 µg/mL (≈ 10.2 µM); in assay [2] (504 h, read-out: MIC MDR) it was 2 µg/mL (≈ 5.12 µM); in assay [3], 2 µg/mL (≈ 5.12 µM).
For the compound `C[C@]1(Cn2cc(COc3ccc(Br)cc3)nn2)Cn2cc([N+](=O)[O-])nc2O1` [I11, (R)-2-((4-((4-Bromophenoxy)methyl)-1H-1,2,3-triazol-1-yl)methyl)-2-methyl-6-nitro-2,3-dihydroimidazo[2,1-b]oxazole], the MIC in assay [1] is 0.25 µg/mL (≈ 0.574 µM); in assay [2] (504 h, read-out: MIC MDR) it was 0.12 µg/mL (≈ 0.276 µM); in assay [2] (setting [4]), 0.12 µg/mL (≈ 0.276 µM); in assay [2] (read-out: MIC value), less than 1 µg/mL; in assay [3], 0.12 µg/mL (≈ 0.276 µM).
Regarding `Cc1ccc(OCc2cn(C[C@@]3(C)Cn4cc([N+](=O)[O-])nc4O3)nn2)cc1` [I12, (R)-2-Methyl-6-nitro-2-((4-((p-tolyloxy)methyl)-1H-1,2,3-triazol-1-yl)methyl)-2,3-dihydroimidazo[2,1-b]oxazole], the MIC is 8 µg/mL (≈ 21.6 µM) in assay [1]; 2 µg/mL (≈ 5.4 µM) in assay [2] (504 h, read-out: MIC MDR); 8 µg/mL (≈ 21.6 µM) in assay [3].
For the compound `Cc1cccc(OCc2cn(C[C@@]3(C)Cn4cc([N+](=O)[O-])nc4O3)nn2)c1` [I13, (R)-2-Methyl-6-nitro-2-((4-((m-tolyloxy)methyl)-1H-1,2,3-triazol-1-yl)methyl)-2,3-dihydroimidazo[2,1-b]oxazole], the MIC was found to be 2 µg/mL (≈ 5.4 µM) in assay [1]; 1 µg/mL (≈ 2.7 µM) in assay [2] (504 h, read-out: MIC MDR); 1 µg/mL (≈ 2.7 µM) in assay [3].
Consider `Cc1ccccc1OCc1cn(C[C@@]2(C)Cn3cc([N+](=O)[O-])nc3O2)nn1` [I14, (R)-2-Methyl-6-nitro-2-((4-((o-tolyloxy)methyl)-1H-1,2,3-triazol-1-yl)methyl)-2,3-dihydroimidazo[2,1-b]oxazole], for which the MIC in assay [1] came out at 1 µg/mL (≈ 2.7 µM); in assay [2] (504 h, read-out: MIC MDR), 1 µg/mL (≈ 2.7 µM); in assay [3] it was 1 µg/mL (≈ 2.7 µM).
For `CCc1ccc(OCc2cn(C[C@@]3(C)Cn4cc([N+](=O)[O-])nc4O3)nn2)cc1` [I15, (R)-2-((4-((4-Ethylphenoxy)methyl)-1H-1,2,3-triazol-1-yl)methyl)-2-methyl-6-nitro-2,3-dihydroimidazo[2,1-b]oxazole], the MIC in assay [1] was determined as 4 µg/mL (≈ 10.4 µM); in assay [2] (504 h, read-out: MIC MDR) it was 2 µg/mL (≈ 5.2 µM); in assay [3], 4 µg/mL (≈ 10.4 µM).
`C[C@]1(Cn2cc(COc3cccc(F)c3)nn2)Cn2cc([N+](=O)[O-])nc2O1` [I16, (R)-2-((4-((3-Fluorophenoxy)methyl)-1H-1,2,3-triazol-1-yl)methyl)-2-methyl-6-nitro-2,3-dihydroimidazo[2,1-b]oxazole]: the MIC in assay [1] stood at 2 µg/mL (≈ 5.34 µM); in assay [2] (504 h, read-out: MIC MDR), 2 µg/mL (≈ 5.34 µM); in assay [3] it was 2 µg/mL (≈ 5.34 µM).
For the compound `C[C@]1(Cn2cc(COc3ccccc3F)nn2)Cn2cc([N+](=O)[O-])nc2O1` [I17, (R)-2-((4-((2-Fluorophenoxy)methyl)-1H-1,2,3-triazol-1-yl)methyl)-2-methyl-6-nitro-2,3-dihydroimidazo[2,1-b]oxazole], the MIC in assay [1] was 1 µg/mL (≈ 2.67 µM); in assay [2] (504 h, read-out: MIC MDR) it was 0.5 µg/mL (≈ 1.34 µM); in assay [2] (setting [4]), 0.5 µg/mL (≈ 1.34 µM); in assay [2] (read-out: MIC value) it was less than 1 µg/mL; in assay [3], 1 µg/mL (≈ 2.67 µM).
As for `CC(C)c1ccc(OCc2cn(C[C@@]3(C)Cn4cc([N+](=O)[O-])nc4O3)nn2)cc1` [I18, (R)-2-((4-((4-Isopropylphenoxy)methyl)-1H-1,2,3-triazol-1-yl)methyl)-2-methyl-6-nitro-2,3-dihydroimidazo[2,1-b]oxazole], the MIC in assay [1] worked out at 4 µg/mL (≈ 10 µM); in assay [2] (504 h, read-out: MIC MDR), 1 µg/mL (≈ 2.51 µM); in assay [3], 2 µg/mL (≈ 5.02 µM).
In the case of `C[C@]1(Cn2cc(COc3ccccn3)nn2)Cn2cc([N+](=O)[O-])nc2O1` [I19, (R)-2-Methyl-6-nitro-2-((4-((pyridin-2-yloxy)methyl)-1H-1,2,3-triazol-1-yl)methyl)-2,3-dihydroimidazo[2,1-b]oxazole], the MIC in assay [1] is 0.5 µg/mL (≈ 1.4 µM); in assay [2] (504 h, read-out: MIC MDR), 0.25 µg/mL (≈ 0.7 µM); in assay [2] (read-out: MIC value) it was less than 1 µg/mL; in assay [3], 0.5 µg/mL (≈ 1.4 µM).
Consider `Cc1ccc(SCc2cn(C[C@@]3(C)Cn4cc([N+](=O)[O-])nc4O3)nn2)cc1` [I20, (R)-2-Methyl-6-nitro-2-((4-((p-tolylthio)methyl)-1H-1,2,3-triazol-1-yl)methyl)-2,3-dihydroimidazo[2,1-b]oxazole], for which the MIC in assay [1] was 2 µg/mL (≈ 5.18 µM); in assay [2] (504 h, read-out: MIC MDR) it was 0.5 µg/mL (≈ 1.29 µM); in assay [2] (read-out: MIC value), less than 1 µg/mL; in assay [3], 0.25 µg/mL (≈ 0.647 µM).
`Cc1ccc(OCCc2cn(C[C@@]3(C)Cn4cc([N+](=O)[O-])nc4O3)nn2)cc1` [I21, (R)-2-Methyl-6-nitro-2-((4-(2-(p-tolyloxy)ethyl)-1H-1,2,3-triazol-1-yl)methyl)-2,3-dihydroimidazo[2,1-b]oxazole]: the MIC in assay [1] was 0.25 µg/mL (≈ 0.65 µM); in assay [2] (504 h, read-out: MIC MDR), 0.25 µg/mL (≈ 0.65 µM); in assay [2] (setting [4]), 0.25 µg/mL (≈ 0.65 µM); in assay [2] (read-out: MIC value), less than 1 µg/mL; in assay [3], 1 µg/mL (≈ 2.6 µM).
For `C[C@]1(Cn2cc(CN3CCOCC3)nn2)Cn2cc([N+](=O)[O-])nc2O1` [I22, (R)-2-Methyl-2-((4-(morpholinomethyl)-1H-1,2,3-triazol-1-yl)methyl)-6-nitro-2,3-dihydroimidazo[2,1-b]oxazole], the MIC was found to be 2 µg/mL (≈ 5.72 µM) in assay [1]; 2 µg/mL (≈ 5.72 µM) in assay [2] (504 h, read-out: MIC MDR); 2 µg/mL (≈ 5.72 µM) in assay [3].
